Results from US9359406B2, “Vaccine for a therapeutic or a prophylactic treatment of myasthenia gravis” (CuraVac Inc., priority 2006, dated 2016).
No end group written: not given here.

Assays:
[1] = test system: experimental autoimmune myasthenia gravis (EAMG); assay: Example 3: EAMG induced with purified Torpedo AChR in Lewis rats vaccinated with T-peptide, B-peptide or both; format: in vivo; details: immunized three times
From the text: To evaluate whether vaccination with T-peptide together with B-peptide with an hydrocarbon group causes a different effect on experimental autoimmune myasthenia gravis (EAMG) than either B with an hydrocarbon group and T-peptide alone and separately, Lewis rats were immunized three times with keyhole limpet hemacyanin (KLH) or T-peptide or B-peptide with an hydrocarbon group coupled to KLH either alone or in combination. EAMG was then induced with purified Torpedo AChR and disease was monitored.

pathogenic antibodies = assay: Pathogenic antibodies level in rats given B-peptide and T-peptide alone or together; format: in vivo; details: result in words
Procedure: As previously described, the peptide RhCA 67-16 also called herein B-peptide and the peptide RhCA 611-001 also referred herein T-peptide were tested alone on rats.

[2] = test system: Experimental Autoimmune Myasthenia Gravis (EAMG); details: cited from earlier work

Substance: NH2-Tyr-Phe-Ser-Arg-Ile-Ile-Gln-Lys-Gln-Phe-Gly-His-Val-Asn-Asn-Gly-Lys (H-YFSRIIQKQFGHVNNGK) [RhCA 611-001, peptide complementary to residues 100-116 of the α-chain of the AChR]
- Average Severity [1]: 1.22 ± 0.55
- EAMG Incidence (%) [1]: 55.56%
- Mortality (%) [1]: 22.22%
- Severity 0, number of rats [1]: 4
- Severity 1, number of rats [1]: 3
- Severity 4, number of rats [1]: 2
- pathogenic antibodies level (pathogenic antibodies): significant decrease
- clinical outcome after immunization ([2]; Lewis rats, result in words): marked clinical improvement, lowered mortality and preservation of AChR levels on muscles

Substance: NH2-Phe-Asn-Ser-Thr-Ile-Ile-Gly-Trp-Ile-Pro-Ala-Lys-Pro-His-Ile-Asn (H-FNSTIIGWIPAKPHIN; also: Trp8 carries at least one 2,4,6-trimethoxybenzyl group) [RhCA 67-16]
- Average Severity [1]: 1.33 ± 0.55
- EAMG Incidence (%) [1]: 55.56%
- Mortality (%) [1]: 22.22%
- Severity 0, number of rats [1]: 4
- Severity 1, number of rats [1]: 2
- Severity 2, number of rats [1]: 1
- Severity 4, number of rats [1]: 2
- pathogenic antibodies level (pathogenic antibodies): significant decrease
- incidence of the disease in vaccinated animals ([2]; peptide conjugated to KLH, controls 90%): 25%
- clinical severity scoring in animals with disease, average ([2]; peptide conjugated to KLH, positive controls 3.5): 1.0
